{
  "source": "paper PMC5218480",
  "about": "(PLoS ONE, 2017)",
  "system": "MV-4-11 cells",
  "assay": "Gene expression microarray analysis (Affymetrix PrimeView) and GSEA",
  "assay_type": "cell-based, human",
  "parameters": "RFU PODN (11730768_x_at) / Fold change /veh PODN (11730768_x_at) / RFU LINC00158 (11744669_a_at) / Fold change /veh LINC00158 (11744669_a_at) / RFU DUSP10 (11751237_a_at) / Fold change /veh DUSP10 (11751237_a_at) / RFU ID3 (11757404_x_at) / Fold change /veh ID3 (11757404_x_at) / RFU PLEKHG5 (11737974_s_at) / Fold change /veh PLEKHG5 (11737974_s_at) / RFU LRRC4B (11730491_at) / Fold change /veh LRRC4B (11730491_at) / RFU GIMAP4 (11747438_a_at) / Fold change /veh GIMAP4 (11747438_a_at) / RFU KRT8 (11758183_x_at) / Fold change /veh KRT8 (11758183_x_at) / RFU CNN1 (11734310_a_at) / Fold change /veh CNN1 (11734310_a_at) / RFU VPS37D (11726825_at) / Fold change /veh VPS37D (11726825_at) / RFU C10orf10 (11716522_x_at) / Fold change /veh C10orf10 (11716522_x_at) / RFU KIR2DL2 /// KIR2DL4 /// KIR2DL5A /// KIR2DL5B /// KIR2DS1 /// KIR2DS2 /// KIR2DS3 /// KIR2DS4 /// KIR3DL3 /// KIR3DL3 /// KIR3DS1 (11738374_at) / Fold change /veh KIR2DL2 /// KIR2DL4 /// KIR2DL5A /// KIR2DL5B /// KIR2DS1 /// KIR2DS2 /// KIR2DS3 /// KIR2DS4 /// KIR3DL3 /// KIR3DL3 /// KIR3DS1 (11738374_at) / RFU C1QL1 (11718748_at) / Fold change /veh C1QL1 (11718748_at) / RFU TMPRSS4 (11747572_a_at) / Fold change /veh TMPRSS4 (11747572_a_at) / RFU HAMP (11756126_x_at) / Fold change /veh HAMP (11756126_x_at) / RFU RNFT2 (11725882_a_at) / Fold change /veh RNFT2 (11725882_a_at) / RFU NR4A2 (11747474_a_at) / Fold change /veh NR4A2 (11747474_a_at) / RFU ABCC12 (11746883_a_at) / Fold change /veh ABCC12 (11746883_a_at) / RFU TMEM136 (11760407_x_at) / Fold change /veh TMEM136 (11760407_x_at) / RFU CLDN22 /// WWC2 (11732394_at) / Fold change /veh CLDN22 /// WWC2 (11732394_at) / RFU HLA-DPB1 (11760878_x_at) / Fold change /veh HLA-DPB1 (11760878_x_at) / RFU SPINT1 (11716480_a_at) / Fold change /veh SPINT1 (11716480_a_at) / RFU GAP43 (11754022_s_at) / Fold change /veh GAP43 (11754022_s_at) / RFU A4GNT (11735810_at) / Fold change /veh A4GNT (11735810_at) / RFU PRB3 (11715151_x_at) / Fold change /veh PRB3 (11715151_x_at) / RFU TUBB4B (11761932_at) / Fold change /veh TUBB4B (11761932_at) / RFU CAPN14 (11732068_a_at) / Fold change /veh CAPN14 (11732068_a_at) / RFU TMCC2 (11721928_a_at) / Fold change /veh TMCC2 (11721928_a_at) / RFU IRGQ (11745062_a_at) / Fold change /veh IRGQ (11745062_a_at) / RFU FAM174B (11720279_a_at) / Fold change /veh FAM174B (11720279_a_at) / RFU TMPRSS4 (11748680_a_at) / Fold change /veh TMPRSS4 (11748680_a_at) / RFU FAM212B (11763350_a_at) / Fold change /veh FAM212B (11763350_a_at) / RFU PLEKHG5 (11743358_a_at) / Fold change /veh PLEKHG5 (11743358_a_at) / RFU ZSCAN30 (11745921_a_at) / Fold change /veh ZSCAN30 (11745921_a_at) / RFU CMKLR1 (11741424_a_at) / Fold change /veh CMKLR1 (11741424_a_at) / RFU LOC101060620 /// MAPK8IP1 (11723275_at) / Fold change /veh LOC101060620 /// MAPK8IP1 (11723275_at) / RFU SPTSSB (11747773_x_at) / Fold change /veh SPTSSB (11747773_x_at) / RFU PRSS12 (11739890_at) / Fold change /veh PRSS12 (11739890_at) / RFU BIN1 (11741810_x_at) / Fold change /veh BIN1 (11741810_x_at) / RFU WNT11 (11732464_a_at) / Fold change /veh WNT11 (11732464_a_at) / RFU C10orf10 (11716521_a_at) / Fold change /veh C10orf10 (11716521_a_at) / RFU C5orf56 (11738089_at) / Fold change /veh C5orf56 (11738089_at) / RFU CYB561 (11721691_x_at) / Fold change /veh CYB561 (11721691_x_at) / RFU ANKRD19P (11752326_a_at) / Fold change /veh ANKRD19P (11752326_a_at) / RFU OR2T12 /// OR2T33 /// OR2T8 (11738714_s_at) / Fold change /veh OR2T12 /// OR2T33 /// OR2T8 (11738714_s_at) / RFU VCAN (11748164_a_at) / Fold change /veh VCAN (11748164_a_at) / RFU JSRP1 (11732532_at) / Fold change /veh JSRP1 (11732532_at) / RFU KRTAP10-11 (11738290_x_at) / Fold change /veh KRTAP10-11 (11738290_x_at) / RFU MYO3A (11730013_a_at) / Fold change /veh MYO3A (11730013_a_at) / RFU EBF3 (11725865_a_at) / Fold change /veh EBF3 (11725865_a_at) / RFU CAMK2N1 (11719241_x_at) / Fold change /veh CAMK2N1 (11719241_x_at) / RFU C5orf56 (11738088_a_at) / Fold change /veh C5orf56 (11738088_a_at) / RFU OLFML3 (11715873_a_at) / Fold change /veh OLFML3 (11715873_a_at) / RFU LOC100653217 /// NTM (11731650_a_at) / Fold change /veh LOC100653217 /// NTM (11731650_a_at) / RFU MAPK11 (11762145_a_at) / Fold change /veh MAPK11 (11762145_a_at) / RFU FIZ1 (11724087_x_at) / Fold change /veh FIZ1 (11724087_x_at) / RFU OASL (11726364_x_at) / Fold change /veh OASL (11726364_x_at) / RFU SOX15 (11748057_x_at) / Fold change /veh SOX15 (11748057_x_at) / RFU CD79A (11719716_a_at) / Fold change /veh CD79A (11719716_a_at) / RFU HIST1H1D (11736915_at) / Fold change /veh HIST1H1D (11736915_at) / RFU CASKIN2 (11723855_a_at) / Fold change /veh CASKIN2 (11723855_a_at) / RFU LOC730098 (11760151_x_at) / Fold change /veh LOC730098 (11760151_x_at) / RFU OR4N2 (11742367_at) / Fold change /veh OR4N2 (11742367_at) / RFU PRRT2 (11749266_a_at) / Fold change /veh PRRT2 (11749266_a_at) / RFU SNX32 (11753110_a_at) / Fold change /veh SNX32 (11753110_a_at) / RFU CDHR5 (11726645_a_at) / Fold change /veh CDHR5 (11726645_a_at) / RFU RCAN1 (11760418_a_at) / Fold change /veh RCAN1 (11760418_a_at) / RFU FAM167A (11723789_a_at) / Fold change /veh FAM167A (11723789_a_at) / RFU FAM26E (11764081_at) / Fold change /veh FAM26E (11764081_at) / RFU ISYNA1 (11749810_s_at) / Fold change /veh ISYNA1 (11749810_s_at) / RFU ACY1 (11761880_at) / Fold change /veh ACY1 (11761880_at) / RFU 11764098_at / Fold change /veh 11764098_at / RFU SAMD14 (11745864_x_at) / Fold change /veh SAMD14 (11745864_x_at) / RFU NPB (11741838_a_at) / Fold change /veh NPB (11741838_a_at) / RFU TMPRSS6 (11731388_a_at) / Fold change /veh TMPRSS6 (11731388_a_at) / RFU KRTAP10-2 (11738614_at) / Fold change /veh KRTAP10-2 (11738614_at) / RFU ARHGAP8 /// PRR5-ARHGAP8 (11727945_x_at) / Fold change /veh ARHGAP8 /// PRR5-ARHGAP8 (11727945_x_at) / RFU KRTAP5-7 /// NADSYN1 (11734609_at) / Fold change /veh KRTAP5-7 /// NADSYN1 (11734609_at) / RFU RASL12 (11751679_a_at) / Fold change /veh RASL12 (11751679_a_at) / RFU CDKN2B (11736163_a_at) / Fold change /veh CDKN2B (11736163_a_at) / RFU PRF1 (11729649_at) / Fold change /veh PRF1 (11729649_at) / RFU, ZNF638 /// ZNF638-IT1 / Fold change vs veh, ZNF638 /// ZNF638-IT1 / RFU, PANK3 / Fold change vs veh, PANK3 / RFU, SH3YL1 / Fold change vs veh, SH3YL1 / RFU, ZEB2 / Fold change vs veh, ZEB2 / RFU, NRIP1 / Fold change vs veh, NRIP1 / RFU, PTTG1IP / Fold change vs veh, PTTG1IP / RFU, CAPN2 / Fold change vs veh, CAPN2 / RFU, MED14 / Fold change vs veh, MED14 / RFU, SNORA58 / Fold change vs veh, SNORA58 / RFU, C1orf63 / Fold change vs veh, C1orf63 / RFU, LRRFIP1 / Fold change vs veh, LRRFIP1 / RFU, NDUFAF7 / Fold change vs veh, NDUFAF7 / RFU, SLC12A2 / Fold change vs veh, SLC12A2 / RFU, IBTK / Fold change vs veh, IBTK / RFU, ESF1 / Fold change vs veh, ESF1 / Fold change vs veh, TMEM50B / RFU, TAOK1 / Fold change vs veh, TAOK1 / RFU, ACBD3 / Fold change vs veh, ACBD3 / RFU, TMA16 / Fold change vs veh, TMA16 / RFU, RWDD3 / Fold change vs veh, RWDD3 / RFU, BCAT1 / Fold change vs veh, BCAT1 / RFU, EDEM3 / Fold change vs veh, EDEM3 / RFU, TMEM33 / Fold change vs veh, TMEM33 / RFU, WDR75 / Fold change vs veh, WDR75 / RFU, AHCTF1 / Fold change vs veh, AHCTF1 / RFU, TFRC / Fold change vs veh, TFRC / RFU, ZDHHC17 / Fold change vs veh, ZDHHC17 / RFU, NOM1 / Fold change vs veh, NOM1 / RFU, ARL8B / Fold change vs veh, ARL8B / RFU, ZBTB11 / Fold change vs veh, ZBTB11 / RFU, TAMM41 / Fold change vs veh, TAMM41 / RFU, KIAA1704 /// LOC100996395 / Fold change vs veh, KIAA1704 /// LOC100996395 / RFU, ING1 / Fold change vs veh, ING1 / RFU, TRMT61B / Fold change vs veh, TRMT61B / RFU, FUBP3 / Fold change vs veh, FUBP3 / RFU, TP53 / Fold change vs veh, TP53 / RFU, TNKS2 / Fold change vs veh, TNKS2 / RFU, ZFP14 / Fold change vs veh, ZFP14 / RFU, ACTR2 / Fold change vs veh, ACTR2 / RFU, PPP3R1 / Fold change vs veh, PPP3R1 / RFU, PIK3R1 / Fold change vs veh, PIK3R1 / RFU, HNRNPA1 / Fold change vs veh, HNRNPA1 / RFU, RNF170 / Fold change vs veh, RNF170 / RFU, ZNF28 / Fold change vs veh, ZNF28 / RFU, RNGTT / Fold change vs veh, RNGTT / RFU, OGT / Fold change vs veh, OGT / RFU, BRD1 / Fold change vs veh, BRD1 / RFU, MARS / Fold change vs veh, MARS / RFU, ZNF655 / Fold change vs veh, ZNF655 / RFU, FAHD1 / Fold change vs veh, FAHD1 / RFU, BDP1 / Fold change vs veh, BDP1 / RFU, LRRCC1 / Fold change vs veh, LRRCC1 / RFU, ARID1A / Fold change vs veh, ARID1A / RFU, ZNF146 / Fold change vs veh, ZNF146 / RFU, ZNF330 / Fold change vs veh, ZNF330 / RFU, GPN3 / Fold change vs veh, GPN3 / RFU, C9orf123 / Fold change vs veh, C9orf123 / RFU, N4BP2L2 / Fold change vs veh, N4BP2L2 / RFU, ARFIP1 / Fold change vs veh, ARFIP1 / RFU, FAM179B / Fold change vs veh, FAM179B / RFU, BCL10 / Fold change vs veh, BCL10 / RFU, UHRF1BP1L / Fold change vs veh, UHRF1BP1L / RFU, BET1 / Fold change vs veh, BET1 / RFU, CNOT2 / Fold change vs veh, CNOT2 / RFU, ZNF268 / Fold change vs veh, ZNF268 / Fold change vs veh, ZNF507 / RFU, DGCR2 / Fold change vs veh, DGCR2 / RFU, WDSUB1 / Fold change vs veh, WDSUB1 / Fold change vs veh, HSP90B1 /// MIR3652 / RFU, ADSS / Fold change vs veh, ADSS / RFU, GK / Fold change vs veh, GK / RFU, ZNF148 / Fold change vs veh, ZNF148 / RFU, TAF9 / Fold change vs veh, TAF9 / RFU, SLC1A5 / Fold change vs veh, SLC1A5 / RFU, SLMO2 / Fold change vs veh, SLMO2 / RFU, ABCC4 / Fold change vs veh, ABCC4 / RFU, LOC101060439 /// RAP1B / Fold change vs veh, LOC101060439 /// RAP1B / RFU, RFX7 / Fold change vs veh, RFX7 / RFU, GTPBP10 / Fold change vs veh, GTPBP10 / RFU, CNEP1R1 / Fold change vs veh, CNEP1R1 / RFU, BIVM-ERCC5 /// ERCC5 / Fold change vs veh, BIVM-ERCC5 /// ERCC5 / RFU, ILF3 / Fold change vs veh, ILF3 / RFU 11762660_at / Fold change /veh 11762660_at / RFU VCAN (11757783_s_at) / Fold change /veh VCAN (11757783_s_at) / RFU DDX43 (11728927_at) / Fold change /veh DDX43 (11728927_at) / RFU KRT8 (11758188_x_at) / Fold change /veh KRT8 (11758188_x_at) / RFU NKD1 (11759106_at) / Fold change /veh NKD1 (11759106_at) / RFU SRD5A1 (11742802_a_at) / Fold change /veh SRD5A1 (11742802_a_at) / RFU TPSAB1 /// TPSB2 (11721975_s_at) / Fold change /veh TPSAB1 /// TPSB2 (11721975_s_at) / RFU GSTM3 (11746129_a_at) / Fold change /veh GSTM3 (11746129_a_at) / RFU IL23R (11737362_x_at) / Fold change /veh IL23R (11737362_x_at) / RFU TMEM51 (11727254_a_at) / Fold change /veh TMEM51 (11727254_a_at) / RFU PIWIL2 (11732686_x_at) / Fold change /veh PIWIL2 (11732686_x_at) / RFU ORM1 (11744905_x_at) / Fold change /veh ORM1 (11744905_x_at) / RFU CCDC152 (11743942_at) / Fold change /veh CCDC152 (11743942_at) / RFU ECM1 (11717891_a_at) / Fold change /veh ECM1 (11717891_a_at) / RFU IL23R (11748794_a_at) / Fold change /veh IL23R (11748794_a_at) / RFU TNFAIP8L3 (11732012_x_at) / Fold change /veh TNFAIP8L3 (11732012_x_at) / RFU MBOAT4 (11741988_at) / Fold change /veh MBOAT4 (11741988_at) / RFU 11764193_at / Fold change /veh 11764193_at / RFU TMEM53 (11763286_at) / Fold change /veh TMEM53 (11763286_at) / RFU MAGEB2 (11727129_at) / Fold change /veh MAGEB2 (11727129_at) / RFU TMEM200A (11744735_a_at) / Fold change /veh TMEM200A (11744735_a_at) / RFU CCDC152 (11751479_a_at) / Fold change /veh CCDC152 (11751479_a_at) / RFU FAM211A (11726209_a_at) / Fold change /veh FAM211A (11726209_a_at) / RFU RGS16 (11746705_a_at) / Fold change /veh RGS16 (11746705_a_at) / RFU VCAN (11755009_s_at) / Fold change /veh VCAN (11755009_s_at) / RFU RHOB (11743442_s_at) / Fold change /veh RHOB (11743442_s_at) / RFU RGS16 (11720943_a_at) / Fold change /veh RGS16 (11720943_a_at) / RFU RGS16 (11720944_at) / Fold change /veh RGS16 (11720944_at) / RFU, VPS4B / Fold change vs veh, VPS4B / RFU, CREB1 / Fold change vs veh, CREB1 / RFU, DNAJC13 / Fold change vs veh, DNAJC13 / RFU, GNAQ / Fold change vs veh, GNAQ / RFU, CDK5R1 / Fold change vs veh, CDK5R1 / RFU, ZRANB3 / Fold change vs veh, ZRANB3 / RFU, CUL4A / Fold change vs veh, CUL4A / RFU, CCNY / Fold change vs veh, CCNY / RFU, UFL1 / Fold change vs veh, UFL1 / RFU, COG3 / Fold change vs veh, COG3 / RFU, DIAPH2 / Fold change vs veh, DIAPH2 / RFU, SKA2 / Fold change vs veh, SKA2 / RFU, AFF3 / Fold change vs veh, AFF3 / RFU, LMF1 / Fold change vs veh, LMF1 / RFU, IPO11 / Fold change vs veh, IPO11 / RFU, DFFB / Fold change vs veh, DFFB / RFU, FOXP1 / Fold change vs veh, FOXP1 / RFU, CARD8 / Fold change vs veh, CARD8 / RFU, STRN3 / Fold change vs veh, STRN3 / RFU, ADK / Fold change vs veh, ADK / RFU, RASSF2 / Fold change vs veh, RASSF2 / RFU, WIPF1 / Fold change vs veh, WIPF1 / RFU, LARP1B / Fold change vs veh, LARP1B / RFU, RASA1 / Fold change vs veh, RASA1 / RFU, RB1 / Fold change vs veh, RB1 / RFU, PPFIA1 / Fold change vs veh, PPFIA1 / RFU, MAT2A / Fold change vs veh, MAT2A / RFU, CCT5 / Fold change vs veh, CCT5 / RFU, WDR92 / Fold change vs veh, WDR92 / RFU, CUX1 / Fold change vs veh, CUX1 / RFU, TTC7A / Fold change vs veh, TTC7A / RFU, TMEM135 / Fold change vs veh, TMEM135 / RFU, DEPTOR / Fold change vs veh, DEPTOR / RFU, CPM / Fold change vs veh, CPM / RFU, DNAJB6 / Fold change vs veh, DNAJB6 / RFU, CACNA2D3 / Fold change vs veh, CACNA2D3 / RFU, DTX4 / Fold change vs veh, DTX4 / RFU, TFCP2 / Fold change vs veh, TFCP2 / RFU, GMCL1 /// GMCL1P1 / Fold change vs veh, GMCL1 /// GMCL1P1 / RFU, AEBP2 / Fold change vs veh, AEBP2 / RFU, SNHG1 /// SNORD22 /// SNORD25 /// SNORD26 /// SNORD27 /// SNORD28 /// SNORD29 /// SNORD31 / Fold change vs veh, SNHG1 /// SNORD22 /// SNORD25 /// SNORD26 /// SNORD27 /// SNORD28 /// SNORD29 /// SNORD31 / Fold change (Aza/veh), C12orf56 (ProbeSet 11735607_a_at) / Fold change (ACY-1035/veh), C12orf56 (ProbeSet 11735607_a_at) / Fold change (Aza/veh), FGFR1OP (ProbeSet 11751329_s_at) / Fold change (ACY-1035/veh), FGFR1OP (ProbeSet 11751329_s_at) / Fold change (Aza/veh), VPS36 (ProbeSet 11739960_a_at) / Fold change (ACY-1035/veh), VPS36 (ProbeSet 11739960_a_at) / RFU SYPL1 (11715823_x_at) / Fold change /veh SYPL1 (11715823_x_at) / RFU IGFBP7 (11715501_s_at) / Fold change /veh IGFBP7 (11715501_s_at) / RFU REEP3 (11722064_at) / Fold change /veh REEP3 (11722064_at) / RFU IGLL1 (11728026_x_at) / Fold change /veh IGLL1 (11728026_x_at): dose or concentration left out as unconfirmed",
  "settings": "MV-4-11 cells, 48 hours",
  "data": [
    {"smiles": "Nc1ccc(-c2cccs2)cc1NC(=O)c1ccc2c(c1)cc(C1CC1)n2CCN1CCOCC1", "note": "[ACY-1035]", "values": [
      {"measurement": "RFU OLFML3 (11715873_a_at)", "result": 13.14, "unit": "RFU"}
    ]}
  ]
}
